The values that follow come from patent US20230116972A1, “CD38 MODULATORS AND METHODS OF USE THEREOF” (Cytokinetics, Inc., priority 2021, published 2023).

For test [1], the target named is T1, endogenous CD38 in HL60 cells (Homo sapiens, UniProt P28907).
T1 construct: endogenous in cells; host or cells: HL60 (leukemic cells, treated with all-trans retinoic acid)
T1 sequence (P28907 1-300): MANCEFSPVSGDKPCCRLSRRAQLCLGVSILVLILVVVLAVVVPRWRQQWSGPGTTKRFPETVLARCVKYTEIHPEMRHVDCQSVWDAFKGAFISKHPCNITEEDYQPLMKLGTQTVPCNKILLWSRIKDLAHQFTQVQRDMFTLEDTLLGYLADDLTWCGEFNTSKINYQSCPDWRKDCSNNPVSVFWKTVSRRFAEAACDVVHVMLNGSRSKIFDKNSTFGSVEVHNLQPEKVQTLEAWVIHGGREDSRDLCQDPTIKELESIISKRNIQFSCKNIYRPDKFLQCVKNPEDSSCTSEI
Put plainly: cellular CD38 assay in HL60 cells (cellular NAD levels). The conditions noted are these: all-trans retinoic acid, 24 hours, read-out: hCD38 HL60 ATRA NAD Cell Diaphorase IC50. It counts as cell-based. On the procedure:
The compounds described herein were also assayed for their ability to inhibit the endogenous CD38 in a native cellular environment in the cellular CD38 assay, which measures the ability of the compound to modulate cellular NAD levels. […] The assays were initiated by plating 20 μL of HL60 cells in culture medium, at a density of 20000 cells per well to a 384-well Corning™ Multiwell Plates. Compounds in DMSO were added to the plates in a volume of 120 nL using the Labcyte Echo Liquid Handlers. […] The plates are then incubated for 24 hours. 50 μL of a readout-solution containing 0.2 U/mL Diaphorase enzyme, 40 uM resazurin, 10 uM FMN, 0.8 U/mL Alcohol dehydrogenase, 3% ethanol, 0.4 mg/mL bovine serum albumin, 0.2% Triton X-100 in 100 mM Tris-HCl, 30 mM EDTA, pH 8.4. The plates were read for fluorescence (Excitation/Emission=540 nm/590 nm) using an EnVision plate reader after 60 mins of incubation at ambient temperature. Note that, in Table 5, the “Compound No” corresponds to the compound numbers in Table 1.

The next test deals with T2, human CD38 (Homo sapiens, UniProt P28907).
T2 sequence (P28907 1-300): T1 sequence (P28907 1-300)
Description: human recombinant CD38 enzyme assay (hydrolysis of NAD+). As to conditions: human recombinant CD38, 0.4 nM enzyme, 62.5 μM NAD+; read-out: hCD38 BioChem IC50. Type of test: biochemical. In a few lines: (§1)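 Steps: compound and recombinant enzyme are mixed, NAD+ is added, and the reaction runs 60 min at room temperature. An ADH/ethanol mix containing a CD38 inhibitor halts hydrolysis and forms NADH. After NaOH quench, resazurin plus diaphorase produce fluorescent resorufin, read at 540/590 nm.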

For a further test, the target named is T3, mouse CD38 (Mus musculus, UniProt P56528).
T3 sequence (P56528 1-304): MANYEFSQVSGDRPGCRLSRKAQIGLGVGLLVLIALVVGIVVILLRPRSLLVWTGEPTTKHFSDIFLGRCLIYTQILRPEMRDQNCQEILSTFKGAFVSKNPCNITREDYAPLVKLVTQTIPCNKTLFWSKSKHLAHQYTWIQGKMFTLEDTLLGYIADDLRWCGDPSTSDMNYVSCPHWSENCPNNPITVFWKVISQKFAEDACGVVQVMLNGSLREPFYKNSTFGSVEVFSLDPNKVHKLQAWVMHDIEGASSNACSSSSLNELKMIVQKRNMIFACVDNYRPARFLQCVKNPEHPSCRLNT
Put plainly: mouse recombinant CD38 enzyme assay (hydrolysis of NAD+). As to conditions: read-out: mCD38 BioChem IC50. It counts as biochemical. In a few lines: as §1

As usually defined, the IC50 is the concentration that gives 50% inhibition.

Consider `O=C(NC1CC2(C1)CC(F)(F)C2)c1ccnc(-n2ccnc2)n1` [Compound 78, N-(6,6-difluorospiro[3.3]heptan-2-yl)-2-(1H-imidazol-1-yl)pyrimidine-4-carboxamide], for which the IC50 in test [1] came to 1110 nM; at human CD38, 79 nM; at mouse CD38 it was 16 nM.

`Cc1cc(C(=O)Nc2ccc(C(F)F)nc2)nc(-c2cncs2)c1` [Compound 132, N-(6-(difluoromethyl)pyridin-3-yl)-4-methyl-6-(thiazol-5-yl)picolinamide]: the values for the IC50 (in test [1]; at human CD38; on mouse CD38) were 5560 nM, 115 nM and 55 nM, respectively.

For `O=C(N[C@H]1CC[C@@H](O)CC1)c1cccc(-n2ccnc2)n1` [Compound 31, N-(4-hydroxycyclohexyl)-6-(1H-imidazol-1-yl)picolinamide], the results for the IC50 (in test [1]; on human CD38; on mouse CD38) were 15700 nM, 479 nM and 205 nM, respectively.

Consider `Cc1cc(C(=O)N[C@H]2CC[C@H](C(F)F)CC2)nc(-c2cncn2C)n1` [Compound 122, N-((1r,4r)-4-(difluoromethyl)cyclohexyl)-6-methyl-2-(1-methyl-1H-imidazol-5-yl)pyrimidine-4-carboxamide], for which the figures for the IC50 (in test [1]; on human CD38; on mouse CD38) were 1010 nM, 10 nM and 1 nM, respectively.

For the compound `O=C(Nc1ccc(C(F)F)nc1)c1cccc(-n2ccnc2)n1` [Compound 95, N-(6-(difluoromethyl)pyridin-3-yl)-6-(1H-imidazol-1-yl)picolinamide], the concentration for half-maximal inhibition (IC50) is 280 nM in test [1], 4 nM on human CD38 and 6 nM on mouse CD38.

On to `Cn1cncc1-c1ccnc(C(=O)N[C@H]2CC[C@H](OC(F)(F)F)CC2)n1` [Compound 317, 4-(1-methyl-1H-imidazol-5-yl)-N-((1r,4r)-4-(trifluoromethoxy)cyclohexyl)pyrimidine-2-carboxamide], for which the IC50 on human CD38 was determined as 79.1 nM; on mouse CD38, 41.7 nM.

Regarding `O=C(N[C@H]1C[C@@H](c2ccccc2)C1)c1nccc(-n2ccnc2)n1` [Compound 212, 4-(1H-imidazol-1-yl)-N-((1s,3s)-3-phenylcyclobutyl)pyrimidine-2-carboxamide], the results for the 50% inhibitory concentration (IC50) at human CD38 and at mouse CD38 were 833 nM and 105 nM, respectively.

For `O=C(N[C@H]1CC[C@H](CO)CC1)c1ccnc(-c2cncs2)n1` [Compound 140, N-((1r,4r)-4-(hydroxymethyl)cyclohexyl)-2-(thiazol-5-yl)pyrimidine-4-carboxamide], the figures for the IC50 on human CD38 and at mouse CD38 were 747 nM and 117 nM, respectively.

Turning to `CO[C@H]1CC[C@H](NC(=O)c2cc(C3CCC3)nc(-n3ccnc3)n2)CC1` [Compound 184, 6-cyclobutyl-2-(1H-imidazol-1-yl)-N-((1r,4r)-4-methoxycyclohexyl)pyrimidine-4-carboxamide], the IC50 at human CD38 stood at 56 nM; at mouse CD38 it was 16 nM.

Regarding `COCCO[C@H]1C[C@H](NC(=O)c2nccc(-c3cncn3C)n2)C1` [Compound 222, N-((1r,3r)-3-(2-methoxyethoxy)cyclobutyl)-4-(1-methyl-1H-imidazol-5-yl)pyrimidine-2-carboxamide], the results for the IC50 at human CD38 and on mouse CD38 were 933 nM and 203 nM, respectively.

In the case of `COCCO[C@H]1CC[C@H](NC(=O)c2nccc(-c3cncn3C)n2)C1` [Compound 344, N-((1S,3S)-3-(2-methoxyethoxy)cyclopentyl)-4-(1-methyl-1H-imidazol-5-yl)pyrimidine-2-carboxamide], the IC50 at human CD38 is 417 nM; on mouse CD38, 46.9 nM.

Consider `CC(C)(C)c1cc(-n2ccnc2)nc(C(=O)Nc2ccc(C(F)F)nc2)n1` [Compound 188, 4-(tert-butyl)-N-(6-(difluoromethyl)pyridin-3-yl)-6-(1H-imidazol-1-yl)pyrimidine-2-carboxamide], for which the IC50 at human CD38 was found to be 1970 nM; on mouse CD38, 661 nM.

Take `CO[C@H]1CC[C@H](NC(=O)c2cc(C3(O)CCC(F)(F)CC3)nc(-c3cncn3C)n2)CC1` [Compound 331, 6-(4,4-difluoro-1-hydroxycyclohexyl)-N-((1r,4r)-4-methoxycyclohexyl)-2-(1-methyl-1H-imidazol-5-yl)pyrimidine-4-carboxamide]: the concentration for half-maximal inhibition (IC50) on human CD38 was 26 nM; on mouse CD38, 4.7 nM.

Take `COc1cc(-n2ccnc2)nc(C(=O)N[C@H]2CC[C@H](OC)CC2)n1` [Compound 208, 4-(1H-imidazol-1-yl)-6-methoxy-N-((1r,4r)-4-methoxycyclohexyl)pyrimidine-2-carboxamide]: the IC50 turned out to be 961 nM on human CD38 and 531 nM at mouse CD38.

As for `O=C(NC1CCC(F)(F)CC1)c1cc(C2CCC2)nc(-n2ccnc2)n1` [Compound 185, 6-cyclobutyl-N-(4,4-difluorocyclohexyl)-2-(1H-imidazol-1-yl)pyrimidine-4-carboxamide], the IC50 at human CD38 is 30 nM; on mouse CD38 it was 14 nM.

Regarding `O=C(NC1CCS(=O)(=O)CC1)c1cc(C2CC2)nc(-c2cncs2)n1` [Compound 142, 6-cyclopropyl-N-(1,1-dioxidotetrahydro-2H-thiopyran-4-yl)-2-(thiazol-5-yl)pyrimidine-4-carboxamide], the half-inhibitory concentration (IC50) at human CD38 was 1720 nM; on mouse CD38, 161 nM.

Turning to `CO[C@H]1CC[C@H](NC(=O)c2nc(-c3cncn3C)ncc2C)CC1` [Compound 328, N-((1r,4r)-4-methoxycyclohexyl)-5-methyl-2-(1-methyl-1H-imidazol-5-yl)pyrimidine-4-carboxamide], the results for the IC50 at human CD38 and on mouse CD38 were 41.4 nM and 11.5 nM, respectively.

In the case of `O=C(N[C@H]1C[C@@H](c2ccc(C(F)(F)F)nc2)C1)c1nccc(-n2ccnc2)n1` [Compound 272, 4-(1H-imidazol-1-yl)-N-((1s,3s)-3-(6-(trifluoromethyl)pyridin-3-yl)cyclobutyl)pyrimidine-2-carboxamide], the results for the half-inhibitory concentration (IC50) at human CD38 and on mouse CD38 were 1340 nM and 224 nM, respectively.

For `CO[C@H]1CC[C@H](NC(=O)c2nc(C(F)F)cc(-n3ccnc3)n2)CC1` [Compound 346, 4-(difluoromethyl)-6-(1H-imidazol-1-yl)-N-((1r,4r)-4-methoxycyclohexyl)pyrimidine-2-carboxamide], the concentration for half-maximal inhibition (IC50) at human CD38 was determined as 109 nM; at mouse CD38, 30.1 nM.

Take `O=C(N[C@H]1CC[C@H](O)CC1)c1nc(C(F)F)cc(-n2ccnc2)n1` [Compound 349, 4-(difluoromethyl)-N-((1r,4r)-4-hydroxycyclohexyl)-6-(1H-imidazol-1-yl)pyrimidine-2-carboxamide]: the values for the IC50 at human CD38 and on mouse CD38 were 128 nM and 28.2 nM, respectively.

As to `Cn1cncc1-c1ncc(F)c(C(=O)Nc2ccc(OC(F)F)nc2)n1` [Compound 338, N-(6-(difluoromethoxy)pyridin-3-yl)-5-fluoro-2-(1-methyl-1H-imidazol-5-yl)pyrimidine-4-carboxamide], the results for the IC50 on human CD38 and at mouse CD38 were 1.8 nM and 1.5 nM, respectively.

Consider `Cn1cncc1-c1ncc(Cl)c(C(=O)N[C@H]2CC[C@H](OC(F)(F)F)CC2)n1` [Compound 325, 5-chloro-2-(1-methyl-1H-imidazol-5-yl)-N-((1r,4r)-4-(trifluoromethoxy)cyclohexyl)pyrimidine-4-carboxamide], for which the IC50 is 29.8 nM at human CD38 and 19.3 nM on mouse CD38.

As to `Cn1cncc1-c1nc(C(=O)Nc2ccc(C(F)(F)F)nc2)cc(C(C)(C)O)n1` [Compound 176, 6-(2-hydroxypropan-2-yl)-2-(1-methyl-1H-imidazol-5-yl)-N-(6-(trifluoromethyl)pyridin-3-yl)pyrimidine-4-carboxamide], the results for the IC50 at human CD38 and on mouse CD38 were 28 nM and 19 nM, respectively.

Consider `CO[C@H]1CC[C@H](NC(=O)c2cc(C3CC3)nc(-n3ccnc3)n2)CC1` [Compound 160, 6-cyclopropyl-2-(1H-imidazol-1-yl)-N-((1r,4r)-4-methoxycyclohexyl)pyrimidine-4-carboxamide], for which the IC50 was 27 nM on human CD38 and 4 nM at mouse CD38.

Regarding `O=C(N[C@H]1CC[C@H](CO)CC1)c1cc(C2CC2)nc(-c2cncs2)n1` [Compound 141, 6-cyclopropyl-N-((1r,4r)-4-(hydroxymethyl)cyclohexyl)-2-(thiazol-5-yl)pyrimidine-4-carboxamide], the IC50 came out at 761 nM at human CD38 and 28 nM at mouse CD38.
